The values that follow come from patent US10039729B2, “Use of kukoamine A and kukoamine B” (Tianjin Chase Sun Pharmaceutical Co., Ltd., priority 2010, dated 2018).

The data set can be described thus: Major organ pathological morphous of mice after KB injection. The data set is classed as in vivo, Kunming mice. The note with it: KB 60 mg/kg single dose; 24, 48 and 72 h. On the procedure:
30.1 Methods: A total of 16 Kunming mice were randomly divided into four groups; each group has 4 mice, half male and half female; for the purpose of experiment a medium group and a KB (60 mg/kg) treatment group were established; mice in medium group were immediately killed by cervical dislocation, and KB treatment group were killed separately killed at 24, 48 and 72 h after injection; the cavitas thoracis and abdominal cavity of mice were cut open; organs such as heart, liver, lung, kidney and intestine were moved out, rinsed with sterile saline, plunged into 10% formaldehyde solution for fixing, dehydrated, embedded in paraffin, HE dyed and mounted; organ histopathological changes were observed under a light microscope.

SMILES strings stand for the structures.

Take `NCCCN(CCCCNCCCNC(=O)CCc1ccc(O)c(O)c1)C(=O)CCc1ccc(O)c(O)c1` [KB, Kukoamine B]: the cardiac muscle histopathology result was “no cell necrosis and inflammatory cell infiltration”; the “changes in major organs of mice” value is reported as “no significant changes in major organs”; the kidney histopathology result was “normal morphology and no obvious changes”; the liver histopathology entry was “no pathological changes such as cellular swelling and necrosis”. Further, the lung histopathology entry was “no congestion and inflammatory cell infiltration”.
